According to ChEMBL document CHEMBL5653631, “A Potent and Selective ULK1 Inhibitor Suppresses Autophagy and Sensitizes Cancer Cells to Nutrient Stress” (iScience, 2018):
Each block holds one compound with its values, some of them ahead of it.

Assays:
[1] = target: Activated CDC42 kinase 1 (Homo sapiens) (UniProt Q07912); test: Inhibition of human recombinant ACK at 500 nM related to control ULK1
[2] = target: Misshapen-like kinase 1 (Homo sapiens) (UniProt Q8N4C8); test: Inhibition of human recombinant MINK at 500 nM in presence of ATP by radiometric assay relative to control
[3] = species: Homo sapiens; test: Inhibition of human recombinant KHS1 at 500 nM related to control ULK1
[4] = target: Vascular endothelial growth factor receptor 1 (Homo sapiens) (UniProt P17948); test: Inhibition of human recombinant FLT1 at 500 nM related to control ULK1
[5] = target: Angiopoietin-1 receptor (Homo sapiens) (UniProt Q02763); test: Inhibition of human recombinant Tie2 at 15 nM related to control ULK1
[6] = target: Insulin receptor (Homo sapiens) (UniProt P06213); test: Inhibition of human recombinant INSR at 15 nM in presence of ATP by radiometric assay relative to control
[7] = target: T1, Serine/threonine-protein kinase 3 (Homo sapiens) (UniProt Q13188); test: Inhibition of human recombinant MST2 at 15 nM related to control ULK1
T1 sequence (whole entry): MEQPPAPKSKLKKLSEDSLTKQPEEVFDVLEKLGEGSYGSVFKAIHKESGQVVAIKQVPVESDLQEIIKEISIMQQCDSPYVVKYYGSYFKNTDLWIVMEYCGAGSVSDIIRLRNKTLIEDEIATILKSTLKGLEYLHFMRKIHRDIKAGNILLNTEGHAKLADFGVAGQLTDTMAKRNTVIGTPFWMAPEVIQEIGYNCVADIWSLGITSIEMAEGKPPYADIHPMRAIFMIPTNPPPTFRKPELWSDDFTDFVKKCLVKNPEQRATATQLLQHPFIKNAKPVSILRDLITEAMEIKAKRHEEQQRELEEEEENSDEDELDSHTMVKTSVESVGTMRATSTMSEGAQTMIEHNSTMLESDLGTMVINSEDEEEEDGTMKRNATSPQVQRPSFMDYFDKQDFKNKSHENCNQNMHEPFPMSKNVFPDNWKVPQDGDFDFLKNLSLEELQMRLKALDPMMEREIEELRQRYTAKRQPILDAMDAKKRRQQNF

[8] = target: Activin receptor type-2A (Homo sapiens) (UniProt P27037); test: Inhibition of human recombinant ACTR2 at 15 nM related to control ULK1
[9] = target: Vascular endothelial growth factor receptor 1 (Homo sapiens) (UniProt P17948); test: Inhibition of human recombinant FLT1 at 15 nM in presence of ATP by radiometric assay relative to control
[10] = target: T2, NUAK family SNF1-like kinase 1 (Homo sapiens) (UniProt O60285); test: Inhibition of human recombinant NuaK1 at 15 nM in presence of ATP by radiometric assay relative to control
T2 sequence (whole entry): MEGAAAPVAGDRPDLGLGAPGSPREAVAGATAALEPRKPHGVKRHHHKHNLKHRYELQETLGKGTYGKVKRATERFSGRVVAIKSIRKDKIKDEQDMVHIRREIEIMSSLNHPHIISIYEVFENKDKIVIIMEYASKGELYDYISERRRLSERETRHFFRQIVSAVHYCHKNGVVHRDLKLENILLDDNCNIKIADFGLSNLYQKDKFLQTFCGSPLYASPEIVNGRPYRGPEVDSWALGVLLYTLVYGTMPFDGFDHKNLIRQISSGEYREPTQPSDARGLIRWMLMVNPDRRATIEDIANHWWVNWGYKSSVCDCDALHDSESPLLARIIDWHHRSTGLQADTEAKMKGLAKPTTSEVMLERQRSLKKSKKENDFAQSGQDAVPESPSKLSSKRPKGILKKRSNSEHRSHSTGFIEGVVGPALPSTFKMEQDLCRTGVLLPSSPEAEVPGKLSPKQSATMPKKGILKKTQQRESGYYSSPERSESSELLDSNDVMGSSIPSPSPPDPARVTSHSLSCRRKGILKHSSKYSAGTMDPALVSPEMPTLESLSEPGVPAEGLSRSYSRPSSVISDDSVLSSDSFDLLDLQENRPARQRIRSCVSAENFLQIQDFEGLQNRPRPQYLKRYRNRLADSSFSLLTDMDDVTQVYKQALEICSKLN

[11] = target: T3, Serine/threonine-protein kinase TBK1 (Homo sapiens) (UniProt Q9UHD2); test: Inhibition of human recombinant TBK1 at 40 nM related to control ULK1
T3 sequence (whole entry): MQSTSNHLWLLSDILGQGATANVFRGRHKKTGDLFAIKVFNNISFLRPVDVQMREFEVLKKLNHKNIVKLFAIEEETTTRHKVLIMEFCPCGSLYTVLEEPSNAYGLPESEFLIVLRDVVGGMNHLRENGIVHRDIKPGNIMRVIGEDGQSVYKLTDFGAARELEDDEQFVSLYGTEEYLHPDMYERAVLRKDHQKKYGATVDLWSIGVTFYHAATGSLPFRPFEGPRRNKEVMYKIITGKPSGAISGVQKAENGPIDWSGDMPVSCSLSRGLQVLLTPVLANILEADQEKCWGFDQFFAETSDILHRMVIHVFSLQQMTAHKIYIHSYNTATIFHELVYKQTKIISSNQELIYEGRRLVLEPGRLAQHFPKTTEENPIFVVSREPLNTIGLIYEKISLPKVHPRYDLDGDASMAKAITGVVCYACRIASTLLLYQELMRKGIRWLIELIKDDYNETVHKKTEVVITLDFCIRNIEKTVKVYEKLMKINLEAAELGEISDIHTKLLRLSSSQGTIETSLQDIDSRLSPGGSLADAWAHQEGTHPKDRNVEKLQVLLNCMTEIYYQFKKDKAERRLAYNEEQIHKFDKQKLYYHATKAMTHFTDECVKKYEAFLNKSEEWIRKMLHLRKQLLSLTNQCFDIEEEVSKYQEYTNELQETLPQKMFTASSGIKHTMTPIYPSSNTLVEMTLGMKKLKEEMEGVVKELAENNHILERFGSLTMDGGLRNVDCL

[12] = target: Tyrosine-protein kinase Yes (Homo sapiens) (UniProt P07947); test: Inhibition of human recombinant YES at 40 nM related to control ULK1

- fold change (FC) [1]: 0.42
- inhibition [2]: 4%
- fold change (FC) [3]: 0.15
- fold change (FC) [4]: 0.03
SMILES: CNC(=O)c1ccccc1Oc1nc(Nc2cc(OC)c(OC)c(OC)c2)ncc1Br

- fold change (FC) [5]: 0
- inhibition [6]: 0%
- fold change (FC) [7]: 0.03
- fold change (FC) [8]: 0.05
- inhibition [9]: 9%
- inhibition [10]: 27%
SMILES: CC(C)[C@H](NC(=O)c1cc(-c2cnn3cc(-c4ccc(OCCN5CCCCC5)cc4)cnc23)cs1)C(F)(F)F

- fold change (FC) [11]: 0.36
- fold change (FC) [12]: 0.32
SMILES: O=C(N[C@@H](C1CC1)C(F)(F)F)c1cc(-c2cnn3cc(-c4ccc(F)cc4)cnc23)cs1
